Assay results reported in the supplement of paper PMC4380931.

What was measured:
Assay in all cases: relative viability (cell count relative to DMSO-treated control) (fraction of DMSO control); higher = more viable cells / less drug effect
WM1552C = system: WM1552C
Description: (§1)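 BRAF V600E/D melanoma cell lines were seeded in 96-well plates, treated in 4 replicates with seven doses (3.16 nM to 3.16 uM) of RAF/MEK inhibitors for 24, 48 or 72 h, and stained with Hoechst 33342 (nuclei) and DEVD-NucView488 caspase-3 substrate. Plates were imaged on an Operetta. Relative viability is the cell count normalised to a DMSO-treated control; apoptosis fraction is the fraction of NucView488-positive nuclei.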

LOXIMVI = conditions: 24 h
Description: as §1

MZ7MEL = system: MZ7MEL
Description: as §1

RVH421 = system: RVH421
Description: as §1

MMACSF = system: MMACSF
Description: as §1

CCCS(=O)(=O)Nc1ccc(F)c(C(=O)c2c[nH]c3ncc(Cl)cc23)c1F [PLX4720]
relative viability
Conditions	0.00316 µM	0.01 µM	0.0316 µM	0.1 µM	0.316 µM	1 µM	3.16 µM
MMACSF, 24 h	1.02	0.9436	0.974	1.04	0.991	1.02	1.06
MMACSF, 48 h	0.92	1.02	1.01	1.01	0.854	0.764	0.679
MMACSF, 72 h	0.937	0.923	0.86	0.632	0.531	0.336	0.146
MZ7MEL, 24 h	1.02	1.02	1.14	1.19	1.13	0.956	0.795
MZ7MEL, 48 h	1.04	0.99	1.02	1.09	0.931	0.608	0.48
MZ7MEL, 72 h	1.28	1.16	1.07	0.661	0.504	0.382	0.329
RVH421, 24 h	0.932	1.01	0.9915	1.05	1.054	0.981	0.909
RVH421, 48 h	1.03	0.881	0.948	0.939	0.732	0.673	0.541
RVH421, 72 h	0.978	1.03	1.01	0.89	0.678	0.569	0.483
WM1552C, 24 h	1.02	1.05	1.031	1.08	1.02	1.064	0.9942
WM1552C, 48 h	0.976	0.994	1.01	0.977	0.839	0.795	0.723
WM1552C, 72 h	1.04	1.13	1.13	1.03	0.83	0.576	0.497

LOXIMVI
Conditions	relative viability
0.00316 µM	0.917
0.01 µM	0.969
0.0316 µM	1.03
0.1 µM	1.1
0.316 µM	1.05
1 µM	1.04
3.16 µM	0.913
